Assay results: patent publication US20170306040A1, “COMBINATION THERAPY OF AN AFUCOSYLATED CD20 ANTIBODY WITH A CD22 ANTIBODY-DRUG CONJUGATE” (Hoffmann-La Roche Inc., priority 2013, published 2017)

Tested on: WSU-DLCL2 lymphoma cells
Procedure: The tumor cell line was routinely cultured in DMEM containing 10% FCS (Gibco) at 37° C. in a water-saturated atmosphere at 5% CO2. Passage 15 was used for transplantation in human CD16 transgenic Scid mice. […] Expression of CD20 and CD22 was confirmed on WSU-DLCL2 lymphoma cells by FACS. […] Mean fluorescence was measured using the plate protocol in the FACS CantoII (Software FACS Diva).
60 SCID FcgR3 transgenic female mice (SCID CD16 tg mice), age 7-8 weeks at start of experiment (purchased from Charles River), were maintained under specific-pathogen-free condition with daily cycles of 12 h light/12 h darkness according to committed guidelines (GV-Solas; Felasa; TierschG). […] After arrival animals were maintained for one week to get accustomed to new environment and for observation. Continuous health monitoring was carried out on regular basis.
Animals were randomized for CD16 Expression on murine NK cells with an average of 70%. Treatment started 12 days after cell transplantation. […] The CD22-ADC was given once on study day 12 at the dose of 4 mg/kg. The antibody dilutions were prepared freshly from stock before use. The study was terminated on day 273.
Animals were controlled daily for clinical symptoms and detection of adverse effects. Termination criteria for animals were visible sickness: scruffy fur, arched back, heavy breathing, impaired locomotion, HLP (hind leg paralysis). Mice were sacrificed according to the termination criteria.
Survival data were statistically analyzed by pairwise Wilcoxon and pairwise log-rank test.
The diffuse large B-cell lymphoma cell line WSU-DLCL2 was intravenously inoculated (5×10^6 cells) into the tail vein of the human CD16 transgenic Scid mice. Mice were randomized for equal CD16 expression of NK cells and treatment started at day 12 after cell transplantation. […] Animals in the control group received PBS. All animals were controlled daily for clinical symptoms and detection of adverse effects and sacrificed according to the set termination criteria. Study termination was on study day 273. Survival data were represented with the survival curve (FIG. 1) and were statistically analyzed by Pairwise Wilcoxon and Pairwise Log-Rank test (FIG. 2).

## GA101: afucosylated glycoengineered humanized B-Ly1 type II anti-CD20 IgG1 antibody
Pairwise Wilcoxon test
  Survival difference between GA101 and rituximab single agents: no significant difference
  Survival difference from the vehicle group: significantly different from the vehicle group except of GA101
WSU-DLCL2 i.v. in SCID CD16 tg mice, GA101/rituximab 30 mg/kg i.v. days 12, 19, 26, CD22-ADC 4 mg/kg i.v. once day 12, study end day 273
  Median Survival: 86.5 days
Day 273, 10 animals per group
  Animals tumor free at the end of the study: 1 animals
Surviving animals/10 per group, same dosing as the median survival study
  Overall Survival at end of experiment (day 273): 1/10
